From PMC10811918, “Mechanisms of Bushen Tiaoxue Granules against controlled ovarian hyperstimulation-induced abnormal morphology of endometrium based on network pharmacology” (Journal of Ovarian Research, 2024)
Read-outs that look alike come from different tables or passages of the source.

Experiments:
[1] = test system: Human endometrial stromal cells (hESC); assay: Cytotoxicity on hESC (CCK8 cell viability); format: cell-based; details: for IC50: read-out: IC50 (inhibition of hESC proliferation)
Description: Human endometrial stromal cells (hESC) were obtained from the Meisen Chinese Tissue Culture Collections (Zhejiang, China). The basal culture medium for hESC comprised DMEM/F12 supplemented with 10% fetal bovine serum (FBS) and 1% penicillin–streptomycin. The culture environment was maintained at 5% CO2 and 37 °C. […] Six gradients of concentrations were established to determine the IC50 of these compounds.
(§1) D-Galactose (D-Gal) was procured from Solabio Company (Beijing, China) and prepared in DMEM/F12 at a concentration of 200 mM as the modeling drug. hESC were uniformly seeded at 4 × 10^3 cells/well in a 96-well plate with 6 replicates per group, while wells treated only with basal culture medium served as the control group. Following cell adhesion, a 24-h intervention with 200 mM D-Gal was administered, followed by a 24-h culture with the appropriate concentration of natural product selected from the screening. CCK8 solution (Solabio, Beijing, China) was added to the wells and incubated in the culture chamber for 2 h, and absorbance was recorded at 450 nm using a microplate reader (Bio-Rad, USA).
All data in this study were analyzed by SPSS 22.0 software, and the results were presented as mean ± SEM. The one-way ANOVA, followed with Turkey’s test was performed for multiple comparison. p value < 0.05 was considered statistically significant. GraphPad Prism is utilized for calculating IC50 values and organizing graphs.
Previous studies have identified an increased senescent phenotype in endometrial stromal cells post COH, which is unfavorable for decidualization during embryo implantation. D-Gal is a widely recognized mimetic agent causing oxidative stress damage and promoting aging.

[2] = test system: hESC with D-Gal-induced damage; assay: Protection against D-Gal-induced damage in hESC (CCK-8); format: cell-based, Human; details: 200 mM D-Gal 24 h, then compound 24 h at two concentrations: quercetin 50/25 μM, taxifolin 260/130 μM, kaempferol 400/200 μM, eriodictyol 230/115 μM, isorhamnetin 500/250 μM
Description: as §1
Cell viability was assessed using CCK-8 assay (Fig. 10A).

[3] = test system: mice; details: dose higher than 800 μg; cited from earlier work
[4] = Blood drug concentration of kaempferol following BTG administration; format: in vivo, rat; details: rats, BTG 3.27 g/kg oral gavage for 3 days, sampling 10 min to 12 h
Text: Supplementary file 13048_2023_1339_MOESM1_ESM.pdf: Additional file 1: Table S1. Composition of the BTG. Table S2. Identification of chemical components in BTG. Table S3. Affinity of ingredients with potential targets. Figure S1. […] Upon usage, it was sequentially diluted to obtain concentration gradient solutions. Utilizing the same 50 female SD rats as employed in the in vivo experiment, two rats constituted the blank control group, while the remaining 48 rats were divided into treatment groups, each consisting of 6 rats. […] The blood samples were centrifuged at 4°C, 3500 rpm for 10 min, and the supernatant was analyzed. Following the UPLC-MS analysis method described earlier, the peak areas of the analyte and internal standard were recorded to calculate the blood drug concentrations at each time point. […] The serum levels of (A) ALT, (B) AST, (C) CREA, (D) UA, and (E) UREA in each group of rats were measured using microplate assays. […]
stock solution of 200 μg/mL for the mixed control solution. […] The blood samples were centrifuged at 4°C, 3500 rpm for 10 min, and the supernatant was analyzed. Following the UPLC-MS analysis method described earlier, the peak areas of the analyte and internal standard were recorded to calculate the blood drug concentrations at each time point. […]

[5] = cited from earlier work
[6] = test system: mouse embryos; set-up: method as in PMID 25896022; details: cited from earlier work
[7] = hESC, six concentration gradients

| Compound | IC50 [1, 7] | improvement of cellular viability damage caused by D-Gal [2] | also measured |
| --- | --- | --- | --- |
| O=C1c2c(O)cc(O)cc2OC(c2ccc(O)c(O)c2)C1O (stereo not shown) [taxifolin] | 263 µM | effective improvement | – |
| CS(=O)(=O)Nc1ccc([N+](=O)[O-])cc1Oc1ccccc1 [nimesulide] | – | – | implantation sites [3]: reduced |
| O=c1c(O)c(-c2ccc(O)cc2)oc2cc(O)cc(O)c12 [kaempferol] | – | effective improvement | IC50 [1]: 399 µM; kaempferol concentration in the blood following BTG administration [4]: sustained detectable concentrations even at 8 h; oral bioavailability [5]: 41.88% |
| COc1cc(-c2oc3cc(O)cc(O)c3c(=O)c2O)ccc1O [isorhamnetin] | > 500 µM | failed to effectively ameliorate | – |
| O=C[C@H](O)[C@@H](O)[C@@H](O)[C@H](O)CO [D-Gal, D-Galactose, reference compound] | – | – | inhibition at 200000 µM ([1]; hESCs, 200 mM, read-out: inhibition of cell proliferation): ~50% |
| O=c1c(O)c(-c2ccc(O)c(O)c2)oc2cc(O)cc(O)c12 [quercetin] | – | failed to effectively ameliorate | IC50 [1]: 45.4 µM; oral bioavailability [5]: 46.43% |
| O=C(O)[C@H]1O[C@@H](Oc2cc3oc(-c4ccccc4)cc(=O)c3c(O)c2O)[C@H](O)[C@@H](O)[C@@H]1O [baicalin] | – | – | adhesion rate and implantation rate of mouse embryos [6]: increase |
| O=C1C[C@@H](c2ccc(O)c(O)c2)Oc2cc(O)cc(O)c21 [eriodictyol] | 233 µM | effective improvement | – |
